# Experiments:
# ribosomes [1] = settings: S. pneumoniae; cited from earlier work
# E. coli S30 extract = type: biochemical
# [2] = target: rabbit reticulocyte lysate; test: Translation inhibition in rabbit reticulocyte lysate system (luciferase mRNA); type: biochemical
# ribosomes [3] = settings: macrolide-poisoned ribosomes; cited from earlier work
# [4] = tested on: ribosome peptidyl transferase; settings: cited from earlier work
compound,measurement,setting,value
CC[C@H]1OC(=O)[C@H](C)C(=O)[C@H](C)[C@@H](O[C@@H]2O[C@H](C)C[C@H](N(C)C)[C@H]2O)[C@](C)(OCC=Cc2cnc3ccccc3c2)C[C@@H](C)C(=O)[C@H](C)[C@H]2NC(=O)O[C@@]21C [ABT-773],ribosome binding relative to erythromycin,ribosomes [1],binds ribosomes tighter than erythromycin
COc1ccc(C[C@H]2NC[C@H](O)[C@H]2OC(C)=O)cc1 [anisomycin],IC50,E. coli S30 extract,> 100 µM
same,IC50,[2],0.19 µM
CO[C@@H]1[C@@H](O[C@@H]2O[C@H](C)[C@@H](O[C@H]3C[C@@](C)(O)[C@@H](OC(=O)CC(C)C)[C@H](C)O3)[C@H](N(C)C)[C@H]2O)[C@@H](CC=O)C[C@@H](C)C(=O)/C=C/[C@@H]2O[C@H]2C[C@@H](C)OC(=O)C[C@H]1OC(C)=O [carbomycin A],length of oligopeptides synthesized in presence of macrolide,ribosomes [3],strongly inhibits the formation of even the first peptide bond
O=C(N[C@H](CO)[C@H](O)c1ccc([N+](=O)[O-])cc1)C(Cl)Cl [chloramphenicol],IC50,E. coli S30 extract,12.3 µM
same,IC50,[2],> 100 µM
CC[C@H]1OC(=O)[C@H](C)[C@@H](O[C@H]2C[C@@](C)(OC)[C@@H](O)[C@H](C)O2)[C@H](C)[C@@H](O[C@@H]2O[C@H](C)C[C@H](N(C)C)[C@H]2O)[C@](C)(O)C[C@@H](C)C(=O)[C@H](C)[C@@H](O)[C@]1(C)O [erythromycin],length of oligopeptides synthesized in presence of macrolide,ribosomes [3],permit the formation of tetrapeptides
CC[C@H]1OC(=O)C[C@@H](O)[C@H](C)[C@@H](O[C@@H]2O[C@H](C)[C@@H](O[C@H]3C[C@@](C)(O)[C@@H](O)[C@H](C)O3)[C@H](N(C)C)[C@H]2O)[C@@H](CC=O)C[C@@H](C)C(=O)/C=C/C(C)=C/[C@@H]1CO[C@@H]1O[C@H](C)[C@@H](O)[C@@H](OC)[C@H]1OC [tylosin],length of oligopeptides synthesized in presence of macrolide,ribosomes [3],allow formation of only dipeptides
CCdA-phosphate-puromycin [CCdA-p-Puro],binding to the ribosome,[4],binds tightly to the ribosome
same,inhibition of peptidyl transferase activity,[4],inhibits its peptidyl transferase activity
spiramycin,length of oligopeptides synthesized in presence of macrolide,ribosomes [3],allow formation of only dipeptides

# — patent publication US8912150B2, “Ribosome structure and protein synthesis inhibitors” (Rib-X Pharmaceuticals, Inc., priority 2001, dated 2014)
